Measurements reported in ChEMBL document CHEMBL1201862, “PubChem BioAssay data set” (2004).
Activity calls are given as the source filed them.

How the values were obtained:
[1] = target: T1, Corticotropin-releasing factor receptor 2/Corticotropin-releasing factor-binding protein (Homo sapiens, UniProt P24387+Q13324); assay: activators of CRF receptor 2 with binding protein – uHTS hits, confirmation (AID 602473); assay type: functional; settings: read-out: EC50_Mean
T1 sequence (Q13324 whole entry): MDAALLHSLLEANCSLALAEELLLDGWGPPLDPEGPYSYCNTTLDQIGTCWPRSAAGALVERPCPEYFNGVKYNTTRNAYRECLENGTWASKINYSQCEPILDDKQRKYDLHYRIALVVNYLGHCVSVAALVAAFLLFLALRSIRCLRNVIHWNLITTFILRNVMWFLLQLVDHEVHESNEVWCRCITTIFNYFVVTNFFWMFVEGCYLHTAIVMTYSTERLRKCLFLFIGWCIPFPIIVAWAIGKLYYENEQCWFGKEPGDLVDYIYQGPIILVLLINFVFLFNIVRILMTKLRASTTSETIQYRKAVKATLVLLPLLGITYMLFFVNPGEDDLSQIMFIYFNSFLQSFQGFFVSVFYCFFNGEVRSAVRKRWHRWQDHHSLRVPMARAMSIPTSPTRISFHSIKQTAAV
T1 sequence (P24387 whole entry): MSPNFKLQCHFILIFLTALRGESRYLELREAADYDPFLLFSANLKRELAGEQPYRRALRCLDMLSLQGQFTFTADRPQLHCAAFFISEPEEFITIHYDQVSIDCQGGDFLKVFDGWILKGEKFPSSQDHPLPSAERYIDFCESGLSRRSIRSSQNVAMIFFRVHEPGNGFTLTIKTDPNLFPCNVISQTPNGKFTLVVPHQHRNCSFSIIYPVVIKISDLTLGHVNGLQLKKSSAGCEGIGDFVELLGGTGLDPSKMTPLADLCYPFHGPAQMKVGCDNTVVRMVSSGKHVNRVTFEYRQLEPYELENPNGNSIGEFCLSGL

[2] = target: T1, Corticotropin-releasing factor receptor 2/Corticotropin-releasing factor-binding protein; assay: Dose Response confirmation of uHTS hits for small molecule antagonists of the CRF-binding protein and CRF-R2 receptor complex.; assay type: functional; settings: read-out: IC50_Mean
Cytochrome P450 2C19 = Cytochrome P450 2C19 (Homo sapiens, UniProt P33261); assay: Cytochrome panel assay with activity outcomes. Panel member name: p450-cyp2c19 Compounds with AC50 equal or less than 10 uM are considered active; assay type: functional
Chain of Cytochrome P450 2C19 (P33261 whole entry): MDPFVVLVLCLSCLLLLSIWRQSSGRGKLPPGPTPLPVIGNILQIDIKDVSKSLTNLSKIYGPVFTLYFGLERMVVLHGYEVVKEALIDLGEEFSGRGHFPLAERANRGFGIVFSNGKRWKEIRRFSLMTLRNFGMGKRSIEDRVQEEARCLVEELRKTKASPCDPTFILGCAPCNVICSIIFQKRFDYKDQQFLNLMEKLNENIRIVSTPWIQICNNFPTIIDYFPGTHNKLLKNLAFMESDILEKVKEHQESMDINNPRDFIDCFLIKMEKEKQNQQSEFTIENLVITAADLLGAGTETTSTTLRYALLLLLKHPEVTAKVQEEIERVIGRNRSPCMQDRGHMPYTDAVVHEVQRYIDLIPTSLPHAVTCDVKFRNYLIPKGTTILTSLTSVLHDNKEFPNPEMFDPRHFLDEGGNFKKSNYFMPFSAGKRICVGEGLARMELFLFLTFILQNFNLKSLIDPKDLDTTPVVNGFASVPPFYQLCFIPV

[3] = NIH-3T3 fibroblast cytotoxicity, dose response, cytotoxicity control, cell-based, fluorescence, Alamar Blue, secondary assay (AID 2327); assay type: functional;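 note: NIH-3T3 mouse fibroblasts cultured with fluconazole at 8 µg/mL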
[4] = fluconazole-exposed Candida albicans growth modulators – fluorescence, retest, confirmation (AID 2467); assay type: functional, cell-based
Cytochrome P450 2D6 = Cytochrome P450 2D6 (Homo sapiens, UniProt P10635);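 note: CYP2D6 member of a cytochrome P450 panel assay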
Chain of Cytochrome P450 2D6 (P10635 whole entry): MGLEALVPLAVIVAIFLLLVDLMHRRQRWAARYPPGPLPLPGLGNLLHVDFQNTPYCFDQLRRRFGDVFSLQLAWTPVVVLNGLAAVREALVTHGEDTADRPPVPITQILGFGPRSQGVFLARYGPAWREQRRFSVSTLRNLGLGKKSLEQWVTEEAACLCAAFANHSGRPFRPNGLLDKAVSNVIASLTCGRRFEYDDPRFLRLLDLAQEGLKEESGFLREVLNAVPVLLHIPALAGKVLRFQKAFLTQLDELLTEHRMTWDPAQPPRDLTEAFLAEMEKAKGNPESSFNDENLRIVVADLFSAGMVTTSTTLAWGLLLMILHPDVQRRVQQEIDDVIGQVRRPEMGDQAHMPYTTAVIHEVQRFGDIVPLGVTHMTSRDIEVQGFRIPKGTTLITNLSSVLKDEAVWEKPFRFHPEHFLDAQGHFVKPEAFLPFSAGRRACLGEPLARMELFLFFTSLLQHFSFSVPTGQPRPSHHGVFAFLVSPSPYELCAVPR

Cytochrome P450 3A4 = Cytochrome P450 3A4 (Homo sapiens, UniProt P08684);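 note: CYP3A4 tested as one member of a cytochrome P450 panel screen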
Chain of Cytochrome P450 3A4 (P08684 whole entry): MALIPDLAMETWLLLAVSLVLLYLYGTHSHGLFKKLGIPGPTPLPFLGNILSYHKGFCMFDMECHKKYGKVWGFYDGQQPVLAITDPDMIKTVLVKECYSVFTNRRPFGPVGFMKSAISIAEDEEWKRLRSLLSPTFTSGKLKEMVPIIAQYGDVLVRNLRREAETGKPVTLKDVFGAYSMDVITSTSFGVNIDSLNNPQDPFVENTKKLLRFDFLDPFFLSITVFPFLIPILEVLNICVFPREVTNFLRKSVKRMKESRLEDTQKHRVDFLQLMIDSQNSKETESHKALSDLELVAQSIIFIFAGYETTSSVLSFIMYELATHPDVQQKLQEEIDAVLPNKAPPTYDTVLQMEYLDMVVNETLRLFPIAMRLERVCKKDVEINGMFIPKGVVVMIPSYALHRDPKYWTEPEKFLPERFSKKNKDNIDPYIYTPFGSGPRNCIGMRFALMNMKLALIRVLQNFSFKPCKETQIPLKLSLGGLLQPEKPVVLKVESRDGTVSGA

Cytochrome P450 1A2 = target: T2, Cytochrome P450 1A2 (Homo sapiens, UniProt P05177);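 note: PubChem cytochrome P450 panel assay, CYP1A2 panel member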
T2 sequence (P05177 whole entry): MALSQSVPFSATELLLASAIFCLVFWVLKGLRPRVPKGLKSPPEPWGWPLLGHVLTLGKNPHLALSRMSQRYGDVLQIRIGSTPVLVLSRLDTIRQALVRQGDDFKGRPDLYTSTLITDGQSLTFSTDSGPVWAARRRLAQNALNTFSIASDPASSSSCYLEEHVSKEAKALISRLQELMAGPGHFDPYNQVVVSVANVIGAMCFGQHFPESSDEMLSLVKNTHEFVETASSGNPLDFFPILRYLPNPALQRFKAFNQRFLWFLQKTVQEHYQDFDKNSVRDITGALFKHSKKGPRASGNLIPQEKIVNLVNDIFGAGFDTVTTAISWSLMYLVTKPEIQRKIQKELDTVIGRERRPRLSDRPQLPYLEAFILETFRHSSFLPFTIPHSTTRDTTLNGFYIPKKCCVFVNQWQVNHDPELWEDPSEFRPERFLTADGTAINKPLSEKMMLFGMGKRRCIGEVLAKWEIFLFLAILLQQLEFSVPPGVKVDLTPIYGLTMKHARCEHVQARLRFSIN

[5] = Luminescence Cell-Based Dose Confirmation HTS to Identify Activators of 5'UTR Stem-Loop Driven Alpha-Synuclein mRNA Translation in H4 Neuroglioblastoma Cells. [Related pubchem assays: 1829 (Project Summary), 1814 (Primary HTS)]; assay type: functional
H4 = assay: Luminescence Cell-Based Dose Response HTS to Identify Activators of 5'UTR Stem-Loop Driven Prion Protein mRNA Translation in H4 Neuroglioblastoma Cells. [Related pubchem assays: 1829 (Project Summary), 1814 (Primary HTS)]; assay type: functional; settings: Homo sapiens
[6] = Luminescence Cell-Based Dose Response HTS to Identify Activators of Luciferase Translation or Activity in H4 […] Cells. [Related pubchem assays: 1829 (Project Summary), 1814 (Primary HTS)]; assay type: functional
Cytochrome P450 2C9 = Cytochrome P450 2C9 (Homo sapiens, UniProt P11712)
Chain of Cytochrome P450 2C9 (P11712 whole entry): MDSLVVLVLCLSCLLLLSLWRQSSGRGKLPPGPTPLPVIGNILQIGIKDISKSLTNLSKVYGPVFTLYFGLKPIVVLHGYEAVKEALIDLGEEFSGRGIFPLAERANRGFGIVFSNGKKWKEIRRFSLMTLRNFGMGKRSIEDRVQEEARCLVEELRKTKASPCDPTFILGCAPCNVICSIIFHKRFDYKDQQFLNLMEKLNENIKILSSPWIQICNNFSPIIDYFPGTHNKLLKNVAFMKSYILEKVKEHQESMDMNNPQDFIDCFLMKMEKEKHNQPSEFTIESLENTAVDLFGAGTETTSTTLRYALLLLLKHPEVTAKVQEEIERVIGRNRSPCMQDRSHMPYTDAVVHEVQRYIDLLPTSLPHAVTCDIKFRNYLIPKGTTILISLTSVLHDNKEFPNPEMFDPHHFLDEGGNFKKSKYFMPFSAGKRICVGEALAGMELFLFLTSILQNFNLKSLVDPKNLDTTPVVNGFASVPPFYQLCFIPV

## CCOC(=O)c1ccc(NC(=O)c2cccc3c2C(=O)N(CC2CCCO2)C3)cc1 (centres undefined)
[1]
  EC50: > 53 µM (inactive)
[2]
  IC50: > 47.1 µM (inactive)

## COc1ccc(/C=C/c2nc(O)cc(-c3ccccc3)n2)cc1
[1]
  EC50: > 53 µM (inactive)
[2]
  IC50: > 47.1 µM (inactive)

## COCCNC(=O)CCn1c(=O)oc2ccccc21
Cytochrome P450 2C19; read-out: AC50
  AC50: 1.41 µM (inconclusive)

## NS(=O)(=O)c1cccc(NC(S)=NCc2ccc3c(c2)OCO3)c1
[3]
  EC50: > 160 µM (inactive)
[4]
  EC50: > 38 µM (not active)

## Clc1ccc2c(N[C@H]3CC[C@H](N4CCCCC4)CC3)ccnc2c1
Cytochrome P450 2C19
  AC50: inconclusive
Cytochrome P450 2D6
  AC50: 3.98 µM (inconclusive)

## Cc1nc(-c2cccc(NC(=O)c3cc4cc(Br)ccc4oc3=O)c2)cs1
Cytochrome P450 2C19; read-out: AC50
  AC50: 20 µM (inconclusive)
Cytochrome P450 3A4
  AC50: 10 µM (inconclusive)
Cytochrome P450 1A2
  AC50: 8.91 µM (inconclusive)

## Cc1ccc(C)c(C(=N)c2ccccc2Cc2ccccc2)c1
Cytochrome P450 2D6
  AC50: 3.16 µM (inconclusive)

## O=C(Nc1ccccc1)C(Cc1ccccc1)NC(=O)C12CC3CC(CC(C3)C1)C2 (centres undefined)
Cytochrome P450 2D6
  AC50: 0.00794 µM (inconclusive)

## COc1cc2c(cc1NC(=O)c1ccc3c(c1)OCO3)oc1ccccc12
[5]
  EC50: 5.37 µM (active)
H4
  EC50: 85.3 µM (active)
[6]
  EC50: 43.1 µM (active)

## COCCCn1c(SCC(=O)Nc2ccccc2F)nnc1-c1ccoc1C
[1]
  EC50: > 53 µM (inactive)
[2]
  IC50: > 47.1 µM (inactive)

## O=C(N/N=C/c1ccc(N2CCOCC2)s1)c1ccccc1Cl
[5]
  EC50: 20.9 µM (active)
H4
  EC50: 48.6 µM (active)
[6]
  EC50: 12 µM (active)

## Cc1noc(C)c1C(=O)N1CCC2(CC1)CCN(C(c1ccccc1)c1ccccc1)CC2
Cytochrome P450 2D6
  AC50: 25.1 µM (inconclusive)

## CCC(=O)N1CCn2c1nc1ccccc12
Cytochrome P450 2C19; read-out: AC50
  AC50: 28.2 µM (inconclusive)
Cytochrome P450 2C9
  AC50: 1.41 µM (inconclusive)

## COc1cc(SC)ccc1C(=O)OCC(=O)NC1CC1
[3]
  EC50: > 150 µM (inactive)
[4]
  EC50: > 38 µM (not active)

## COc1ccc(Cc2c(N)nc(N)nc2N)cc1
Cytochrome P450 2D6
  AC50: 17.8 µM (inconclusive)

## COc1ccc(C2C(C#N)=C(N)Nc3nc4ccccc4n32)cc1 (centres undefined)
[5]
  EC50: 12.1 µM (active)
H4
  EC50: 32.9 µM (active)
[6]
  EC50: 16.7 µM (active)

## O=C(CC1C(=O)NCCN1C(=O)Nc1ccccc1)Nc1ccc2c(c1)OCO2 (centres undefined)
[1]
  EC50: > 53 µM (inactive)
[2]
  IC50: > 47.1 µM (inactive)

## CCCCc1[nH]nc2c1/C(=N/O)CC(c1ccccc1)C2 (centres undefined)
Cytochrome P450 2D6
  AC50: 14.1 µM (inconclusive)

## O=C(Nc1ccccc1)N1CCCC2(CCN(C(=O)Oc3ccccc3)CC2)C1
Cytochrome P450 1A2
  AC50: 25.1 µM (inconclusive)
Cytochrome P450 2D6
  AC50: 20 µM (inconclusive)

## COc1cccc(OCc2nc3ccccc3c(=O)n2N)c1
[3]
  EC50: > 150 µM (inconclusive)
[4]
  EC50: 10.1 µM (active)

## CCN1CCN(CC(=O)N2N=CCC2c2ccccc2)CC1 (centres undefined)
[1]
  EC50: > 53 µM (inactive)
[2]
  IC50: > 47.1 µM (inactive)

## c1ccc(N2CCCC3(CCNCC3)C2)cc1
Cytochrome P450 2C19; read-out: AC50
  AC50: 15.8 µM (inconclusive)
Cytochrome P450 3A4
  AC50: 25.1 µM (inconclusive)

## COC(=O)[C@@]1(Cc2ccccc2)[C@H]2c3cc(C(=O)N4CCCC4)n(Cc4ccc(C)o4)c3C[C@H]2CN1C(=O)c1ccccc1
Cytochrome P450 1A2
  AC50: 12.6 µM (inconclusive)
Cytochrome P450 2D6
  AC50: 39.8 µM (inconclusive)
